Data on one compound can be found in article PMC5218480 (PLoS ONE, 2017).

In this assay the test system is MV-4-11 cells. Kind of assay: Gene expression microarray analysis (Affymetrix PrimeView) and GSEA. Also on record: RFU PODN (11730768_x_at) / Fold change /veh PODN (11730768_x_at) / RFU LINC00158 (11744669_a_at) / Fold change /veh LINC00158 (11744669_a_at) / RFU DUSP10 (11751237_a_at) / Fold change /veh DUSP10 (11751237_a_at) / RFU ID3 (11757404_x_at) / Fold change /veh ID3 (11757404_x_at) / RFU PLEKHG5 (11737974_s_at) / Fold change /veh PLEKHG5 (11737974_s_at) / RFU LRRC4B (11730491_at) / Fold change /veh LRRC4B (11730491_at) / RFU GIMAP4 (11747438_a_at) / Fold change /veh GIMAP4 (11747438_a_at) / RFU KRT8 (11758183_x_at) / Fold change /veh KRT8 (11758183_x_at) / RFU CNN1 (11734310_a_at) / Fold change /veh CNN1 (11734310_a_at) / RFU VPS37D (11726825_at) / Fold change /veh VPS37D (11726825_at) / RFU C10orf10 (11716522_x_at) / Fold change /veh C10orf10 (11716522_x_at) / RFU KIR2DL2 /// KIR2DL4 /// KIR2DL5A /// KIR2DL5B /// KIR2DS1 /// KIR2DS2 /// KIR2DS3 /// KIR2DS4 /// KIR3DL3 /// KIR3DL3 /// KIR3DS1 (11738374_at) / Fold change /veh KIR2DL2 /// KIR2DL4 /// KIR2DL5A /// KIR2DL5B /// KIR2DS1 /// KIR2DS2 /// KIR2DS3 /// KIR2DS4 /// KIR3DL3 /// KIR3DL3 /// KIR3DS1 (11738374_at) / RFU C1QL1 (11718748_at) / Fold change /veh C1QL1 (11718748_at) / RFU TMPRSS4 (11747572_a_at) / Fold change /veh TMPRSS4 (11747572_a_at) / RFU HAMP (11756126_x_at) / Fold change /veh HAMP (11756126_x_at) / RFU RNFT2 (11725882_a_at) / Fold change /veh RNFT2 (11725882_a_at) / RFU NR4A2 (11747474_a_at) / Fold change /veh NR4A2 (11747474_a_at) / RFU ABCC12 (11746883_a_at) / Fold change /veh ABCC12 (11746883_a_at) / RFU TMEM136 (11760407_x_at) / Fold change /veh TMEM136 (11760407_x_at) / RFU CLDN22 /// WWC2 (11732394_at) / Fold change /veh CLDN22 /// WWC2 (11732394_at) / RFU HLA-DPB1 (11760878_x_at) / Fold change /veh HLA-DPB1 (11760878_x_at) / RFU SPINT1 (11716480_a_at) / Fold change /veh SPINT1 (11716480_a_at) / RFU GAP43 (11754022_s_at) / Fold change /veh GAP43 (11754022_s_at) / RFU A4GNT (11735810_at) / Fold change /veh A4GNT (11735810_at) / RFU PRB3 (11715151_x_at) / Fold change /veh PRB3 (11715151_x_at) / RFU TUBB4B (11761932_at) / Fold change /veh TUBB4B (11761932_at) / RFU CAPN14 (11732068_a_at) / Fold change /veh CAPN14 (11732068_a_at) / RFU TMCC2 (11721928_a_at) / Fold change /veh TMCC2 (11721928_a_at) / RFU IRGQ (11745062_a_at) / Fold change /veh IRGQ (11745062_a_at) / RFU FAM174B (11720279_a_at) / Fold change /veh FAM174B (11720279_a_at) / RFU TMPRSS4 (11748680_a_at) / Fold change /veh TMPRSS4 (11748680_a_at) / RFU FAM212B (11763350_a_at) / Fold change /veh FAM212B (11763350_a_at) / RFU PLEKHG5 (11743358_a_at) / Fold change /veh PLEKHG5 (11743358_a_at) / RFU ZSCAN30 (11745921_a_at) / Fold change /veh ZSCAN30 (11745921_a_at) / RFU CMKLR1 (11741424_a_at) / Fold change /veh CMKLR1 (11741424_a_at) / RFU LOC101060620 /// MAPK8IP1 (11723275_at) / Fold change /veh LOC101060620 /// MAPK8IP1 (11723275_at) / RFU SPTSSB (11747773_x_at) / Fold change /veh SPTSSB (11747773_x_at) / RFU PRSS12 (11739890_at) / Fold change /veh PRSS12 (11739890_at) / RFU BIN1 (11741810_x_at) / Fold change /veh BIN1 (11741810_x_at) / RFU WNT11 (11732464_a_at) / Fold change /veh WNT11 (11732464_a_at) / RFU C10orf10 (11716521_a_at) / Fold change /veh C10orf10 (11716521_a_at) / RFU C5orf56 (11738089_at) / Fold change /veh C5orf56 (11738089_at) / RFU CYB561 (11721691_x_at) / Fold change /veh CYB561 (11721691_x_at) / RFU ANKRD19P (11752326_a_at) / Fold change /veh ANKRD19P (11752326_a_at) / RFU OR2T12 /// OR2T33 /// OR2T8 (11738714_s_at) / Fold change /veh OR2T12 /// OR2T33 /// OR2T8 (11738714_s_at) / RFU VCAN (11748164_a_at) / Fold change /veh VCAN (11748164_a_at) / RFU JSRP1 (11732532_at) / Fold change /veh JSRP1 (11732532_at) / RFU KRTAP10-11 (11738290_x_at) / Fold change /veh KRTAP10-11 (11738290_x_at) / RFU MYO3A (11730013_a_at) / Fold change /veh MYO3A (11730013_a_at) / RFU EBF3 (11725865_a_at) / Fold change /veh EBF3 (11725865_a_at) / RFU CAMK2N1 (11719241_x_at) / Fold change /veh CAMK2N1 (11719241_x_at) / RFU C5orf56 (11738088_a_at) / Fold change /veh C5orf56 (11738088_a_at) / RFU OLFML3 (11715873_a_at) / Fold change /veh OLFML3 (11715873_a_at) / RFU LOC100653217 /// NTM (11731650_a_at) / Fold change /veh LOC100653217 /// NTM (11731650_a_at) / RFU MAPK11 (11762145_a_at) / Fold change /veh MAPK11 (11762145_a_at) / RFU FIZ1 (11724087_x_at) / Fold change /veh FIZ1 (11724087_x_at) / RFU OASL (11726364_x_at) / Fold change /veh OASL (11726364_x_at) / RFU SOX15 (11748057_x_at) / Fold change /veh SOX15 (11748057_x_at) / RFU CD79A (11719716_a_at) / Fold change /veh CD79A (11719716_a_at) / RFU HIST1H1D (11736915_at) / Fold change /veh HIST1H1D (11736915_at) / RFU CASKIN2 (11723855_a_at) / Fold change /veh CASKIN2 (11723855_a_at) / RFU LOC730098 (11760151_x_at) / Fold change /veh LOC730098 (11760151_x_at) / RFU OR4N2 (11742367_at) / Fold change /veh OR4N2 (11742367_at) / RFU PRRT2 (11749266_a_at) / Fold change /veh PRRT2 (11749266_a_at) / RFU SNX32 (11753110_a_at) / Fold change /veh SNX32 (11753110_a_at) / RFU CDHR5 (11726645_a_at) / Fold change /veh CDHR5 (11726645_a_at) / RFU RCAN1 (11760418_a_at) / Fold change /veh RCAN1 (11760418_a_at) / RFU FAM167A (11723789_a_at) / Fold change /veh FAM167A (11723789_a_at) / RFU FAM26E (11764081_at) / Fold change /veh FAM26E (11764081_at) / RFU ISYNA1 (11749810_s_at) / Fold change /veh ISYNA1 (11749810_s_at) / RFU ACY1 (11761880_at) / Fold change /veh ACY1 (11761880_at) / RFU 11764098_at / Fold change /veh 11764098_at / RFU SAMD14 (11745864_x_at) / Fold change /veh SAMD14 (11745864_x_at) / RFU NPB (11741838_a_at) / Fold change /veh NPB (11741838_a_at) / RFU TMPRSS6 (11731388_a_at) / Fold change /veh TMPRSS6 (11731388_a_at) / RFU KRTAP10-2 (11738614_at) / Fold change /veh KRTAP10-2 (11738614_at) / RFU ARHGAP8 /// PRR5-ARHGAP8 (11727945_x_at) / Fold change /veh ARHGAP8 /// PRR5-ARHGAP8 (11727945_x_at) / RFU KRTAP5-7 /// NADSYN1 (11734609_at) / Fold change /veh KRTAP5-7 /// NADSYN1 (11734609_at) / RFU RASL12 (11751679_a_at) / Fold change /veh RASL12 (11751679_a_at) / RFU CDKN2B (11736163_a_at) / Fold change /veh CDKN2B (11736163_a_at) / RFU PRF1 (11729649_at) / Fold change /veh PRF1 (11729649_at) / RFU, ZNF638 /// ZNF638-IT1 / Fold change vs veh, ZNF638 /// ZNF638-IT1 / RFU, PANK3 / Fold change vs veh, PANK3 / RFU, SH3YL1 / Fold change vs veh, SH3YL1 / RFU, ZEB2 / Fold change vs veh, ZEB2 / RFU, NRIP1 / Fold change vs veh, NRIP1 / RFU, PTTG1IP / Fold change vs veh, PTTG1IP / RFU, CAPN2 / Fold change vs veh, CAPN2 / RFU, MED14 / Fold change vs veh, MED14 / RFU, SNORA58 / Fold change vs veh, SNORA58 / RFU, C1orf63 / Fold change vs veh, C1orf63 / RFU, LRRFIP1 / Fold change vs veh, LRRFIP1 / RFU, NDUFAF7 / Fold change vs veh, NDUFAF7 / RFU, SLC12A2 / Fold change vs veh, SLC12A2 / RFU, IBTK / Fold change vs veh, IBTK / RFU, ESF1 / Fold change vs veh, ESF1 / Fold change vs veh, TMEM50B / RFU, TAOK1 / Fold change vs veh, TAOK1 / RFU, ACBD3 / Fold change vs veh, ACBD3 / RFU, TMA16 / Fold change vs veh, TMA16 / RFU, RWDD3 / Fold change vs veh, RWDD3 / RFU, BCAT1 / Fold change vs veh, BCAT1 / RFU, EDEM3 / Fold change vs veh, EDEM3 / RFU, TMEM33 / Fold change vs veh, TMEM33 / RFU, WDR75 / Fold change vs veh, WDR75 / RFU, AHCTF1 / Fold change vs veh, AHCTF1 / RFU, TFRC / Fold change vs veh, TFRC / RFU, ZDHHC17 / Fold change vs veh, ZDHHC17 / RFU, NOM1 / Fold change vs veh, NOM1 / RFU, ARL8B / Fold change vs veh, ARL8B / RFU, ZBTB11 / Fold change vs veh, ZBTB11 / RFU, TAMM41 / Fold change vs veh, TAMM41 / RFU, KIAA1704 /// LOC100996395 / Fold change vs veh, KIAA1704 /// LOC100996395 / RFU, ING1 / Fold change vs veh, ING1 / RFU, TRMT61B / Fold change vs veh, TRMT61B / RFU, FUBP3 / Fold change vs veh, FUBP3 / RFU, TP53 / Fold change vs veh, TP53 / RFU, TNKS2 / Fold change vs veh, TNKS2 / RFU, ZFP14 / Fold change vs veh, ZFP14 / RFU, ACTR2 / Fold change vs veh, ACTR2 / RFU, PPP3R1 / Fold change vs veh, PPP3R1 / RFU, PIK3R1 / Fold change vs veh, PIK3R1 / RFU, HNRNPA1 / Fold change vs veh, HNRNPA1 / RFU, RNF170 / Fold change vs veh, RNF170 / RFU, ZNF28 / Fold change vs veh, ZNF28 / RFU, RNGTT / Fold change vs veh, RNGTT / RFU, OGT / Fold change vs veh, OGT / RFU, BRD1 / Fold change vs veh, BRD1 / RFU, MARS / Fold change vs veh, MARS / RFU, ZNF655 / Fold change vs veh, ZNF655 / RFU, FAHD1 / Fold change vs veh, FAHD1 / RFU, BDP1 / Fold change vs veh, BDP1 / RFU, LRRCC1 / Fold change vs veh, LRRCC1 / RFU, ARID1A / Fold change vs veh, ARID1A / RFU, ZNF146 / Fold change vs veh, ZNF146 / RFU, ZNF330 / Fold change vs veh, ZNF330 / RFU, GPN3 / Fold change vs veh, GPN3 / RFU, C9orf123 / Fold change vs veh, C9orf123 / RFU, N4BP2L2 / Fold change vs veh, N4BP2L2 / RFU, ARFIP1 / Fold change vs veh, ARFIP1 / RFU, FAM179B / Fold change vs veh, FAM179B / RFU, BCL10 / Fold change vs veh, BCL10 / RFU, UHRF1BP1L / Fold change vs veh, UHRF1BP1L / RFU, BET1 / Fold change vs veh, BET1 / RFU, CNOT2 / Fold change vs veh, CNOT2 / RFU, ZNF268 / Fold change vs veh, ZNF268 / Fold change vs veh, ZNF507 / RFU, DGCR2 / Fold change vs veh, DGCR2 / RFU, WDSUB1 / Fold change vs veh, WDSUB1 / Fold change vs veh, HSP90B1 /// MIR3652 / RFU, ADSS / Fold change vs veh, ADSS / RFU, GK / Fold change vs veh, GK / RFU, ZNF148 / Fold change vs veh, ZNF148 / RFU, TAF9 / Fold change vs veh, TAF9 / RFU, SLC1A5 / Fold change vs veh, SLC1A5 / RFU, SLMO2 / Fold change vs veh, SLMO2 / RFU, ABCC4 / Fold change vs veh, ABCC4 / RFU, LOC101060439 /// RAP1B / Fold change vs veh, LOC101060439 /// RAP1B / RFU, RFX7 / Fold change vs veh, RFX7 / RFU, GTPBP10 / Fold change vs veh, GTPBP10 / RFU, CNEP1R1 / Fold change vs veh, CNEP1R1 / RFU, BIVM-ERCC5 /// ERCC5 / Fold change vs veh, BIVM-ERCC5 /// ERCC5 / RFU, ILF3 / Fold change vs veh, ILF3 / RFU 11762660_at / Fold change /veh 11762660_at / RFU VCAN (11757783_s_at) / Fold change /veh VCAN (11757783_s_at) / RFU DDX43 (11728927_at) / Fold change /veh DDX43 (11728927_at) / RFU KRT8 (11758188_x_at) / Fold change /veh KRT8 (11758188_x_at) / RFU NKD1 (11759106_at) / Fold change /veh NKD1 (11759106_at) / RFU SRD5A1 (11742802_a_at) / Fold change /veh SRD5A1 (11742802_a_at) / RFU TPSAB1 /// TPSB2 (11721975_s_at) / Fold change /veh TPSAB1 /// TPSB2 (11721975_s_at) / RFU GSTM3 (11746129_a_at) / Fold change /veh GSTM3 (11746129_a_at) / RFU IL23R (11737362_x_at) / Fold change /veh IL23R (11737362_x_at) / RFU TMEM51 (11727254_a_at) / Fold change /veh TMEM51 (11727254_a_at) / RFU PIWIL2 (11732686_x_at) / Fold change /veh PIWIL2 (11732686_x_at) / RFU ORM1 (11744905_x_at) / Fold change /veh ORM1 (11744905_x_at) / RFU CCDC152 (11743942_at) / Fold change /veh CCDC152 (11743942_at) / RFU ECM1 (11717891_a_at) / Fold change /veh ECM1 (11717891_a_at) / RFU IL23R (11748794_a_at) / Fold change /veh IL23R (11748794_a_at) / RFU TNFAIP8L3 (11732012_x_at) / Fold change /veh TNFAIP8L3 (11732012_x_at) / RFU MBOAT4 (11741988_at) / Fold change /veh MBOAT4 (11741988_at) / RFU 11764193_at / Fold change /veh 11764193_at / RFU TMEM53 (11763286_at) / Fold change /veh TMEM53 (11763286_at) / RFU MAGEB2 (11727129_at) / Fold change /veh MAGEB2 (11727129_at) / RFU TMEM200A (11744735_a_at) / Fold change /veh TMEM200A (11744735_a_at) / RFU CCDC152 (11751479_a_at) / Fold change /veh CCDC152 (11751479_a_at) / RFU FAM211A (11726209_a_at) / Fold change /veh FAM211A (11726209_a_at) / RFU RGS16 (11746705_a_at) / Fold change /veh RGS16 (11746705_a_at) / RFU VCAN (11755009_s_at) / Fold change /veh VCAN (11755009_s_at) / RFU RHOB (11743442_s_at) / Fold change /veh RHOB (11743442_s_at) / RFU RGS16 (11720943_a_at) / Fold change /veh RGS16 (11720943_a_at) / RFU RGS16 (11720944_at) / Fold change /veh RGS16 (11720944_at) / RFU, VPS4B / Fold change vs veh, VPS4B / RFU, CREB1 / Fold change vs veh, CREB1 / RFU, DNAJC13 / Fold change vs veh, DNAJC13 / RFU, GNAQ / Fold change vs veh, GNAQ / RFU, CDK5R1 / Fold change vs veh, CDK5R1 / RFU, ZRANB3 / Fold change vs veh, ZRANB3 / RFU, CUL4A / Fold change vs veh, CUL4A / RFU, CCNY / Fold change vs veh, CCNY / RFU, UFL1 / Fold change vs veh, UFL1 / RFU, COG3 / Fold change vs veh, COG3 / RFU, DIAPH2 / Fold change vs veh, DIAPH2 / RFU, SKA2 / Fold change vs veh, SKA2 / RFU, AFF3 / Fold change vs veh, AFF3 / RFU, LMF1 / Fold change vs veh, LMF1 / RFU, IPO11 / Fold change vs veh, IPO11 / RFU, DFFB / Fold change vs veh, DFFB / RFU, FOXP1 / Fold change vs veh, FOXP1 / RFU, CARD8 / Fold change vs veh, CARD8 / RFU, STRN3 / Fold change vs veh, STRN3 / RFU, ADK / Fold change vs veh, ADK / RFU, RASSF2 / Fold change vs veh, RASSF2 / RFU, WIPF1 / Fold change vs veh, WIPF1 / RFU, LARP1B / Fold change vs veh, LARP1B / RFU, RASA1 / Fold change vs veh, RASA1 / RFU, RB1 / Fold change vs veh, RB1 / RFU, PPFIA1 / Fold change vs veh, PPFIA1 / RFU, MAT2A / Fold change vs veh, MAT2A / RFU, CCT5 / Fold change vs veh, CCT5 / RFU, WDR92 / Fold change vs veh, WDR92 / RFU, CUX1 / Fold change vs veh, CUX1 / RFU, TTC7A / Fold change vs veh, TTC7A / RFU, TMEM135 / Fold change vs veh, TMEM135 / RFU, DEPTOR / Fold change vs veh, DEPTOR / RFU, CPM / Fold change vs veh, CPM / RFU, DNAJB6 / Fold change vs veh, DNAJB6 / RFU, CACNA2D3 / Fold change vs veh, CACNA2D3 / RFU, DTX4 / Fold change vs veh, DTX4 / RFU, TFCP2 / Fold change vs veh, TFCP2 / RFU, GMCL1 /// GMCL1P1 / Fold change vs veh, GMCL1 /// GMCL1P1 / RFU, AEBP2 / Fold change vs veh, AEBP2 / RFU, SNHG1 /// SNORD22 /// SNORD25 /// SNORD26 /// SNORD27 /// SNORD28 /// SNORD29 /// SNORD31 / Fold change vs veh, SNHG1 /// SNORD22 /// SNORD25 /// SNORD26 /// SNORD27 /// SNORD28 /// SNORD29 /// SNORD31 / Fold change (Aza/veh), C12orf56 (ProbeSet 11735607_a_at) / Fold change (ACY-1035/veh), C12orf56 (ProbeSet 11735607_a_at) / Fold change (Aza/veh), FGFR1OP (ProbeSet 11751329_s_at) / Fold change (ACY-1035/veh), FGFR1OP (ProbeSet 11751329_s_at) / Fold change (Aza/veh), VPS36 (ProbeSet 11739960_a_at) / Fold change (ACY-1035/veh), VPS36 (ProbeSet 11739960_a_at) / RFU SYPL1 (11715823_x_at) / Fold change /veh SYPL1 (11715823_x_at) / RFU IGFBP7 (11715501_s_at) / Fold change /veh IGFBP7 (11715501_s_at) / RFU REEP3 (11722064_at) / Fold change /veh REEP3 (11722064_at) / RFU IGLL1 (11728026_x_at) / Fold change /veh IGLL1 (11728026_x_at): dose or concentration left out as unconfirmed. It is filed as cell-based, human. The conditions noted are these: ProbeSet 11717308_a_at; LIST B.

With `Nc1ccc(-c2cccs2)cc1NC(=O)c1ccc2c(c1)cc(C1CC1)n2CCN1CCOCC1` [ACY-1035], the “Fold change vs veh, WDR75” value is on record as 0.92.
